Assay results as given in patent US8114864B2, “Macrolide antibiotics and their use for medical purposes” (Helmholtz-Zentrum Fuer Infektionsforschung, priority 2006, dated 2012).
Converted amounts (≈) assume the structure as drawn. Where two headings read alike, the source gives them in different places.

Assays:
[1] = tested on: Corynebacterium fascians; experiment: Agar diffusion test; type: cell-based; details: Rhodococcoides fascians, read-out: Diameter of inhibition zone
Method: (§1) In an agar diffusion test using 10 μg of the compound per disc, the following inhibition was found: […]

[2] = tested on: Micrococcus luteus; experiment: Agar diffusion test; type: cell-based; details: read-out: Diameter of inhibition zone
Method: as §1

[3] = tested on: Mycobacterium phlei; experiment: Agar diffusion test; type: cell-based; details: Mycolicibacterium phlei, read-out: Diameter of inhibition zone
Method: as §1

[4] = tested on: Micrococcus luteus; experiment: Inhibition of oxygen demand/consumption of Micrococcus luteus in liquid culture; type: cell-based; details: initial studies
[5] = tested on: NADH oxidation of crude cytoplasmic membrane fractions; experiment: Inhibition of NADH oxidation of crude cytoplasmic membrane fractions; type: biochemical; details: initial studies using Micrococcus luteus
[6] = tested on: Mycobacterium tuberculosis test strain H375RV; experiment: Growth inhibition of Mycobacterium tuberculosis in liquid culture; type: cell-based; details: for antibiotic activity against Mycobacterium tuberculosis: clinical isolates and reference strains
Method: Using the standard Mycobacterium tuberculosis test strain H375RV, it could be shown that thuggacin A inhibited growth at or below 8 μg/mL in liquid culture.
For tests of the biological activity, preferably aqueous compositions of the thuggacins according to the present invention were used separately in an aqueous composition comprising 10 mM acetic acid for stabilisation.

[7] = Stability / rearrangement of thuggacins in protic solvent; type: physicochemical; details: for stability in aqueous solution: optionally comprising a C1-C2 alcohol
Method: Starting from 8 mg/mL thuggacin A, an equilibrium of thuggacin A, thuggacin-B and thuggacin C could be found after approximately 96 hours. In general, the reaction time for reaching the equilibrium can vary over a broad range, e.g. from 1 to 20 days. Re-crystallized thuggacin of high purity is nearly stable, i.e. undergo rearrangement only very slowly. Thuggacin A having a lower purity will undergo rearrangement to thuggacin B and C with increased reaction rates. Similar stabilities have been observed for the rearrangement reaction of thuggacin cmc-A to thuggacin cmc-B and cmc-C.

[8] = tested on: Micrococcus luteus, Mycobacterium phlei and M. chitae; experiment: MIC in liquid culture
[9] = tested on: mouse fibroblast cells (L929); experiment: Sensitivity of cultivated mouse fibroblast cells

**Q.** Which zone of inhibition at 10 µg/disc [1] does the source give for `C/C=C(C)/C=C(\C)CC(C)C1OC(=O)/C(C)=C/c2csc(n2)C(CO)C(O)CC(O)/C=C/C=C\CC(O)C1O` (centres unmarked) [thuggacin cmc-C] here?
**A.** 44 mm

**Q.** What about the zone of inhibition at 10 µg/disc [2] of the same compound?
**A.** 44 mm

**Q.** What about the zone of inhibition at 10 µg/disc [3] of the same compound?
**A.** 22 mm

**Q.** Which “inhibition of oxygen consumption” value [4] does the source give for `C/C=C(C)/C=C(\C)C(O)C(C)C(O)C(O)C1C/C=C\C=C\C(O)CC(O)C(C)c2nc(cs2)/C=C(\CCCCCC)C(=O)O1` (centres unmarked) [thuggacin A] here?
**A.** almost completely

**Q.** And the “oxidation of NADH and of reduced cytochrome c” value [5]?
**A.** reduced

**Q.** And the “antibiotic activity against Mycobacterium tuberculosis” value (shortened to “antibiotic activity”) [6]?
**A.** antibiotic activity

**Q.** What about the concentration inhibiting growth ([6]; liquid culture, strain H375RV) of the same compound?
**A.** ≤ 8 µg/mL

**Q.** What about the zone of inhibition at 10 µg/disc ([1]; 10 μg of compound per disc, Corynebacterium fascians, figures in parentheses indicate an incomplete inhibition) of the same compound?
**A.** 30 mm

**Q.** And the zone of inhibition at 10 µg/disc ([2]; 10 μg of compound per disc)?
**A.** 29 mm

**Q.** And the zone of inhibition at 10 µg/disc ([3]; 10 μg of compound per disc, Mycobacterium phlei)?
**A.** 20 mm

**Q.** What about the “stability in aqueous solution” value [7] of the same compound?
**A.** not stable

**Q.** What about the “time to equilibrium of thuggacin A, thuggacin B and thuggacin C” value ([7]; starting from 8 mg/mL thuggacin A, aqueous composition optionally including methanol (FIG. 1: methanol)) of the same compound?
**A.** approximately 96 hours

**Q.** And the “relative effectiveness in liquid culture MIC experiments” value (shortened to “relative effectiveness”) [8]?
**A.** most effective

**Q.** And the IC50 [9]?
**A.** 4 µg/mL (≈ 6.33 µM)

**Q.** Which zone of inhibition at 10 µg/disc [1] does the source give for `C/C=C(C)/C=C(\C)CC(C)C(O)C(O)C1C/C=C\C=C\C(O)CC(O)C(CO)c2nc(cs2)/C=C(\C)C(=O)O1` (centres unmarked) [thuggacin cmc-A] here?
**A.** 47 mm

**Q.** And the zone of inhibition at 10 µg/disc [2]?
**A.** 46 mm

**Q.** And the zone of inhibition at 10 µg/disc [3]?
**A.** 24 mm

**Q.** And the “relative effectiveness” value [8]?
**A.** most effective

**Q.** For `C/C=C(C)/C=C(\C)C(O)C(C)C(O)C1OC(=O)/C(CCCCCC)=C/c2csc(n2)C(C)C(O)CC(O)/C=C/C=C\CC1O` (centres unmarked) [thuggacin B], which “antibiotic activity” value [6] is on record?
**A.** antibiotic activity

**Q.** What about the “stability in aqueous solution” value [7] of the same compound?
**A.** not stable

**Q.** And the “relative effectiveness” value [8]?
**A.** most effective

**Q.** And the IC50 [9]?
**A.** 8 µg/mL (≈ 12.7 µM)

**Q.** For `C/C=C(C)/C=C(\C)C(O)C(C)C1OC(=O)/C(CCCCCC)=C/c2csc(n2)C(C)C(O)CC(O)/C=C/C=C\CC(O)C1O` (centres unmarked) [thuggacin C], which “antibiotic activity” value [6] is on record?
**A.** antibiotic activity

**Q.** And the “relative effectiveness” value [8]?
**A.** less effective against certain bacteria

**Q.** Which “relative effectiveness” value [8] does the source give for `C/C=C(C)/C=C(\C)CC(C)C(O)C1OC(=O)/C(C)=C/c2csc(n2)C(CO)C(O)CC(O)/C=C/C=C\CC1O` (centres unmarked) [thuggacin cmc-B] here?
**A.** most effective

**Q.** For `C/C=C(C)/C=C(\C)C(O)C(C)C(O)C(O)C1C/C=C(C)\C=C\C(O)CC(O)C(C)c2nc(cs2)/C=C(\CCCCCC)C(=O)O1` (centres unmarked) [13-methyl thuggacin A], which “antibiotic activity” value [6] is on record?
**A.** antibiotic activity
